Columns and labels:
Test in all cases: Kinase panel enzymatic inhibition assay (Nanosyn)
Format in all cases: biochemical
PLK4 = molecular target: T1, PLK4 (Homo sapiens, UniProt O00444); settings: ATP at Km; 30-minute pre-incubation; read-out: kinase inhibition in terms of IC50, PLK4
T1 construct: Nanosyn (contract laboratory that ran the panel)
T1 sequence (O00444 1-970): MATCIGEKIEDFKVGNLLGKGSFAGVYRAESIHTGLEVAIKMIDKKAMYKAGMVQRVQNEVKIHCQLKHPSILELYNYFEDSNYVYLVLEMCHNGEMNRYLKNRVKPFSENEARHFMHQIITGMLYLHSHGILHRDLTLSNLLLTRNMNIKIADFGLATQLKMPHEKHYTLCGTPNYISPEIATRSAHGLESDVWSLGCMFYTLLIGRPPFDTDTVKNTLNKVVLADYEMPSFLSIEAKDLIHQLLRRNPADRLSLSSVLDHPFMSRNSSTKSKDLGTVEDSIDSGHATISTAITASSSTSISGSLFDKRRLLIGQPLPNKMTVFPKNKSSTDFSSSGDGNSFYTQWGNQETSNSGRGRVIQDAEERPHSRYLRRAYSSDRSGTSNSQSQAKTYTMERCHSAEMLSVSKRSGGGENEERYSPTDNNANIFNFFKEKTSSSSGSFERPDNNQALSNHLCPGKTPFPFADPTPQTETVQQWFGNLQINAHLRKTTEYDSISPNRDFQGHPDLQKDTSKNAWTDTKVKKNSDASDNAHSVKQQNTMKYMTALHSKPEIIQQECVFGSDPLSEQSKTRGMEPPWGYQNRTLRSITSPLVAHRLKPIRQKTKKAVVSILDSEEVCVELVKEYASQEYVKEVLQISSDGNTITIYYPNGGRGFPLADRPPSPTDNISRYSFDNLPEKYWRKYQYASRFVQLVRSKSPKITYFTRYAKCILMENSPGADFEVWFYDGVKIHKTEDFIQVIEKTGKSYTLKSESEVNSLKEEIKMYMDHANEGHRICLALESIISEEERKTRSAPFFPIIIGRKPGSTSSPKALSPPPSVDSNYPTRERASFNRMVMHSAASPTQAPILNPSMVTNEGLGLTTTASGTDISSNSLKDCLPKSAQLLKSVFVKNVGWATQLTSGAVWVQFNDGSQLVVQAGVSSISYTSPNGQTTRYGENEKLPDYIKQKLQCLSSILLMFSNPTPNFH
How it was run: (§1)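 Read-out is percent inhibition or IC50, obtained by mobility shift, ADP detection or time-resolved fluorescence detection. Each kinase was run with ATP at its Km, and compound at 5 μM was pre-incubated for 30 minutes.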

SYK = molecular target: T2, SYK (Homo sapiens, UniProt P43405); settings: ATP at Km; 30-minute pre-incubation; read-out: kinase inhibition in terms of IC50, SYK
T2 construct: purchased Nanosyn
How it was run: as §1

PLK1 = molecular target: T3, PLK1 (Homo sapiens, UniProt P53350); settings: ATP at Km; 30-minute pre-incubation; read-out: kinase inhibition in terms of IC50, PLK1
T3 construct: Nanosyn (contract laboratory that ran the panel)
How it was run: as §1

MER = molecular target: T4, MER (Homo sapiens, UniProt Q12866); settings: ATP at Km; 30-minute pre-incubation; read-out: kinase inhibition in terms of IC50, MER
T4 construct: Nanosyn (contract laboratory that ran the panel)
T4 sequence (Q12866 21-999): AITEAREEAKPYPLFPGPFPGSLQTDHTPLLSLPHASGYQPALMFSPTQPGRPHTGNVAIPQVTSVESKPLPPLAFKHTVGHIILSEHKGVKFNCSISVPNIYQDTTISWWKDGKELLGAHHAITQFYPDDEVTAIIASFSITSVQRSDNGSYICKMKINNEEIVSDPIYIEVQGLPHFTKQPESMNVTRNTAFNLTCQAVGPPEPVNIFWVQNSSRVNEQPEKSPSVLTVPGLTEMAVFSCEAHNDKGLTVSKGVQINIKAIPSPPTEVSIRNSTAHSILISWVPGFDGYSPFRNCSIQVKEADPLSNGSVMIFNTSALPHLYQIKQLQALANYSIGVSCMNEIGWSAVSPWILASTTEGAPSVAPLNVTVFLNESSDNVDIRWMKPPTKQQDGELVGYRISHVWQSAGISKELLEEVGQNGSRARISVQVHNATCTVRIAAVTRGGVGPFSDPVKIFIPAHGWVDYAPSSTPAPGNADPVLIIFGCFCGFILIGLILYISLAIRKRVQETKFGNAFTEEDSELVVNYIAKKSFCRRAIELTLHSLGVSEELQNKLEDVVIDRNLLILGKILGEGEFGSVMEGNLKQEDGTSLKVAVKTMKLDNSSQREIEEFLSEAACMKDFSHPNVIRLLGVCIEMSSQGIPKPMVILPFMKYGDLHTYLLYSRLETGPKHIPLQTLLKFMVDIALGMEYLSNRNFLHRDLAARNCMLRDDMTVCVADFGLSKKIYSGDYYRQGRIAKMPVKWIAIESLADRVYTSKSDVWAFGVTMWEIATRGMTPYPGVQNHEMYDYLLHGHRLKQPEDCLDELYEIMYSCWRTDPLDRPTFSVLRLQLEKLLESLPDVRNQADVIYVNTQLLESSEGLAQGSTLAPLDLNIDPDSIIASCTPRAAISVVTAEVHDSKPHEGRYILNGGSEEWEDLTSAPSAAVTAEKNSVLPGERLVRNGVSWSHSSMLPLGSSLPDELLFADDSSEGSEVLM
How it was run: as §1

T3 sequence (P53350 whole entry): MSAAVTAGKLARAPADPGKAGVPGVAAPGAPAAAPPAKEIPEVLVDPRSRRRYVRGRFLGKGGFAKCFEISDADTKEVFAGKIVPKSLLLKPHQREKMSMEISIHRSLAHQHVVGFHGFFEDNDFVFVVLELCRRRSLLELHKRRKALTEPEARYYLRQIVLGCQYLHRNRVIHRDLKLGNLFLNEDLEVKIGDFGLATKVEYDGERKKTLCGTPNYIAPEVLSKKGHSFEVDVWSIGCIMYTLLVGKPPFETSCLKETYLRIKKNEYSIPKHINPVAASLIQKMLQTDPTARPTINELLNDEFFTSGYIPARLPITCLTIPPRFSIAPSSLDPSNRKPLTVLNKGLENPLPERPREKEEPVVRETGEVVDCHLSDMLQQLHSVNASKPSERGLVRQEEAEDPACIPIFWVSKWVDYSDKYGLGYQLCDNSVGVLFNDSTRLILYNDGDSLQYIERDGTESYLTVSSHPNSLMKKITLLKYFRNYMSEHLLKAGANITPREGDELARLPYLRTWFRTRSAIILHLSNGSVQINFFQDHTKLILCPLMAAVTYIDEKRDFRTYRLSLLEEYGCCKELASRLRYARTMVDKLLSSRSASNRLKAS

Compound | IC50 (PLK4) | IC50 (SYK) | IC50 (PLK1) | IC50 (MER)
COc1cc2nccc(Oc3ccc(NC(=O)c4cc(S(C)(=O)=O)n(-c5ccc(F)cc5)n4)c(F)c3)c2cc1OC [Ex71, N-(4-((6,7-dimethoxyquinolin-4-yl)oxy)-2-fluorophenyl)-1-(4-fluorophenyl)-5-(methylsulfonyl)-1H-pyrazole-3-carboxamide] | 1000 to 10000 nM | ≥ 10000 nM | ≥ 10000 nM | < 500 nM
COc1cc2nccc(Oc3ccc(NC(=O)c4cc(S(C)(=O)=O)n(-c5ccc(F)cc5)n4)cc3)c2cc1OC [Ex72, N-(4-((6,7-dimethoxyquinolin-4-yl)oxy)phenyl)-1-(4-fluorophenyl)-5-(methylsulfonyl)-1H-pyrazole-3-carboxamide] | 500 to 1000 nM | 1000 to 10000 nM | ≥ 10000 nM | 500 to 1000 nM
COc1cc2nccc(Oc3ccc(NC(=O)c4cc(S(C)(=O)=O)n(-c5ccc(F)cc5)n4)cc3F)c2cc1OC [Ex73, N-(4-((6,7-dimethoxyquinolin-4-yl)oxy)-3-fluorophenyl)-1-(4-fluorophenyl)-5-(methylsulfonyl)-1H-pyrazole-3-carboxamide] | < 500 nM | ≥ 10000 nM | ≥ 10000 nM | < 500 nM

— patent US20240400577A1, “MODULATORS OF PROTEIN KINASES” (VIBLIOME THERAPEUTICS, LLC, priority 2021, published 2024)
